What all share (experiment): growth of human tumour cells (NCI), 48 h
Test [1] deals with ACHN.
Test [2] has as its system CAKI-1.
Test [3] concerns HCT-116.
In test [4] the test system is HL-60.
In test [5] the test system is HOP-62.
The subject of test [6] is IGROV-1.
Test [7] concerns KM12.
Test [8] deals with LOX IMVI.
Test [9] deals with MDA-MB-435.
In test [10] the test system is MDA-N.
Test [11] has as its system Malme-3M.
The test system of test [12] is NCI-H23.
Test [13] relates to NCI-H522.
The test system of test [14] is OVCAR-3.
The test system of test [15] is OVCAR-5.
Test [16] relates to PC-3.
The subject of test [17] is SK-MEL-28.
Test [18] concerns SNB-75.
Test [19] relates to UACC-257.
Test [20] has as its system MOLT-4.

Experimental findings from ChEMBL document CHEMBL1201862, “PubChem BioAssay data set” (2004) are described below.

SMILES strings stand for the structures.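 Results reflect a 48-hour exposure of cells in 96-well plates to compound at five concentrations. At the GI50, growth is halved.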 Active and inactive are the calls of the source. No stated cut-off is given here; in the data, active = GI50 up to about 1.1 µM and inactive = higher.

Turning to `O=C1C=CC2(C=C1)O[C@H](Cc1ccccc1)[C@@H](Cc1ccccc1)O2`, the GI50 in [1] was 0.279 µM (active); in [2], 0.484 µM (active); in test [3] it was 0.1 µM (active); in test [4], 1.28 µM (inactive); in test [5], 1.15 µM (inactive); in [6], 0.218 µM (active). The GI50 is 1.69 µM (inactive) in [7]; 0.223 µM (active) in [8]; 1.31 µM (inactive) in test [9]; 0.246 µM (active) in [10]; 1.48 µM (inactive) in test [11]; 1.16 µM (inactive) in [12]. For the same molecule, the GI50 in test [13] is 0.174 µM (active); in test [14], 0.298 µM (active); in test [15] it was 0.281 µM (active); in [16], 0.873 µM (active); in test [17], 0.887 µM (active); in test [18], 2.91 µM (inactive). In addition, the GI50 in test [19] is 1.28 µM (inactive).

In the case of `O=c1oc2ccccc2cc1-c1ccc([N+](=O)[O-])cc1`, the GI50 in test [1] was > 100 µM (inactive); in test [2], > 100 µM (inactive); in [3] it was 36.7 µM (inactive); in test [4], > 100 µM (inactive); in [5], > 100 µM (inactive); in test [6] it was > 100 µM (inactive). Besides, the GI50 in [7], in test [8], in test [9], in test [10], in test [20] and in test [11] was > 100 µM (inactive) each time. For the same molecule, the GI50 in [12] is > 100 µM (inactive); in [13] it was 56.1 µM (inactive); in [14], > 100 µM (inactive); in test [15], > 100 µM (inactive); in [16] it was > 100 µM (inactive); in [17], > 100 µM (inactive). Also, the GI50 in test [18] and in [19] was > 100 µM (inactive) each time.

As to `Cc1ccc2c(ccc3[nH]cc(CNc4ccc(NS(C)(=O)=O)cc4)c32)n1`, the GI50 in test [1] was 33.7 µM (inactive); in test [2], 14 µM (inactive); in test [3] it was 18.7 µM (inactive); in [4] it was 27.4 µM (inactive); in [5] it was 24.2 µM (inactive); in test [6] it was 27.8 µM (inactive). Moreover, the GI50 in [7] was 18.3 µM (inactive); in test [8] it was 20.6 µM (inactive); in [9], 16.8 µM (inactive); in [10] it was 17.5 µM (inactive); in test [20], 18.6 µM (inactive); in test [11], 18.5 µM (inactive). For the same molecule, the GI50 in test [12] is 18.7 µM (inactive); in test [13], 14.9 µM (inactive); in test [14], 19.7 µM (inactive); in [15] it was 23.8 µM (inactive); in test [16] it was 25 µM (inactive); in test [17], 23.4 µM (inactive). The GI50 in test [18] is 18.8 µM (inactive); in test [19], 19.1 µM (inactive).

Regarding `CC1=NN(C(=O)CC(=O)Nc2cccc(C)c2)C(=O)C1/N=N/c1ccc(C(=O)O)cc1` (stereo unspecified), the GI50 in [1], in [2], in [3], in test [4], in test [5] and in test [6] was > 100 µM (inactive) in each case. Further, the GI50 in [7], in test [8], in test [9], in [10], in test [11] and in [12] was > 100 µM (inactive) throughout. For the same molecule, the GI50 was > 100 µM (inactive) in [13]; > 100 µM (inactive) in test [14]; > 100 µM (inactive) in [15]; > 100 µM (inactive) in test [16]; > 100 µM (inactive) in [17]; 69.2 µM (inactive) in test [18]. The GI50 in test [19] is > 100 µM (inactive).

Regarding `CSc1ccc(/C=C2\N=C(c3ccccc3)N(/N=C3\C(=O)Nc4ccccc43)C2=O)cc1`, the GI50 in [1], in test [2], in [3], in test [4], in test [5] and in test [6] was > 100 µM (inactive) in each case. The GI50 is > 100 µM (inactive) in [7]; > 100 µM (inactive) in test [8]; > 100 µM (inactive) in test [9]; > 100 µM (inactive) in test [10]; 29.7 µM (inactive) in test [20]; > 100 µM (inactive) in [11]. Also, the GI50 in test [12] is > 100 µM (inactive); in test [13], > 100 µM (inactive); in test [14], 83.6 µM (inactive); in test [15] it was > 100 µM (inactive); in [16] it was > 100 µM (inactive); in [17], > 100 µM (inactive). Moreover, the GI50 in test [18] and in test [19] was > 100 µM (inactive) in each case.

For `Nc1ccccc1C#CC(=O)c1cccc(C(F)(F)F)c1`, the GI50 in test [2] was 3.21 µM (inactive); in test [3] it was 2.66 µM (inactive); in test [4], 6.07 µM (inactive); in [5], 7.24 µM (inactive); in [6], 0.258 µM (active); in test [7], 13.9 µM (inactive). In addition, the GI50 is 1.46 µM (inactive) in test [8]; 2.52 µM (inactive) in [9]; 3.1 µM (inactive) in [10]; 2.55 µM (inactive) in [20]; 6.1 µM (inactive) in test [11]; 1.97 µM (inactive) in test [12]. Further, the GI50 was 1.09 µM (active) in test [13]; 3.78 µM (inactive) in [14]; 6.59 µM (inactive) in [15]; 3.41 µM (inactive) in test [16]; 14.1 µM (inactive) in [18]; 15.7 µM (inactive) in test [19].

As to `O=C1C=C(C2=CC(=O)C(=O)c3ccccc32)c2ccccc2C1=O`, the GI50 in [1] was 21 µM (inactive); in test [2] it was 22 µM (inactive); in [3], 6.65 µM (inactive); in [4], 3.03 µM (inactive); in [5] it was 24.2 µM (inactive); in [6], 28.8 µM (inactive). Further, the GI50 is 18.6 µM (inactive) in test [7]; 3.87 µM (inactive) in test [8]; 1.93 µM (inactive) in [9]; 2.02 µM (inactive) in test [10]; 2.44 µM (inactive) in test [20]; 3.44 µM (inactive) in test [11]. Moreover, the GI50 in test [12] is 5.07 µM (inactive); in [13] it was 2.76 µM (inactive); in test [14], 2.58 µM (inactive); in test [15], 18.8 µM (inactive); in test [16] it was 15.2 µM (inactive); in test [17], 4.26 µM (inactive). The GI50 is 22.4 µM (inactive) in [18] and 6.24 µM (inactive) in test [19].
